# Literature values, collected in patent US20180014537A1, “NOVEL COMPOSITIONS AND METHODS FOR CONTROLLING SOIL BORNE PATHOGENS OF AGRICULTURAL CROPS” (ADJUVANTS UNLIMITED LLC, priority 2015, published 2018).
# Tests used:
# tomato seedlings = conditions: at 24 hours, equivalent concentrations
# Meloidogyne incognita = conditions: 3.2 uL per liter as a soil drench
# [1] = in vivo
# [2] = soil drench
Compound,mortality of seedling (tomato seedlings),control of Meloidogyne incognita (Meloidogyne incognita),less phytotoxic than the parent pelargonic acid [1],concentration above which significant phytotoxicity occurred [2]
CCCCCC[C@@H](O)C/C=C\CCCCCCCC(=O)OC [ricinoleic acid methyl ester],0%,–,–,–
"CCCCCCCCC(=O)OC [PAME, pelargonic acid methyl ester]",100%,good control,40 fold,exceeded 4.8 uL per liter
